Assay results published in US8835479B2, “Agent for fungal dermatitis” (Nihon Nohyaku Co., Ltd., priority 2007, dated 2014).

Test system: Malassezia restricta clinical isolate (R-4)
Experiment: Treatment effect on guinea pig seborrheic dermatitis model
Format: in vivo
Details: 1% luliconazole cream, 0.1 mL/inoculation site/day for 3 days, compared with 2% ketoconazole cream
Method: Efficacy Evaluation Test 2. Treatment Effect on Guinea Pig Seborrheic Dermatitis Model
A guinea pig seborrheic dermatitis model was prepared using Malassezia restricta (Malassezia (M.) restricta) as a pathogenic fungus, and a skin symptom improving effect and a mycological treatment effect of 1% luliconazole cream were evaluated. As a comparative drug, 2% ketoconazole cream was used.
Luliconazole was prepared by the Applicant, and as 2% ketoconazole, a commercially available preparation was purchased and used.
As Malassezia restricta, a clinical isolate (R-4) isolated and identified by Teikyo University Institute of Medical Mycology was used. 2.5 mL of a modified Leeming (Leeming and Notman) liquid medium (m-LN. containing olive oil) was added per 1 g wet weight of the precultured strain for suspending therein to give an inoculum. […]
The hair on the back of the animal was shaved, and two inoculation sites (diameter 2 cm) were placed on either side of the back skin symmetrically. […] The skin symptoms were observed through the experiment from the inoculation starting day to the day of sacrifice and recorded by using the score. […] The skin section was successively observed from one end to the other end and the fungal content was evaluated by the criteria shown in the Table. The detection frequency of fungus in each section was determined. […]

For `N#C/C(=C1/SC[C@@H](c2ccc(Cl)cc2Cl)S1)n1ccnc1` [Luliconazole, (−)-(E)-[(4R)-(2,4-dichlorophenyl)-1,3-dithioran-2-ylidene](1H-imidazol-1-yl)acetonitrile], the mycological treatment effect (PAS-stained skin sections, FIG. 2) was “showed mycological cure” and the “skin symptom improving effect” value (FIG. 1) was “improved skin symptom”.
